Several values for one entry are separate records, joined by “and”; a condition that tells them apart may be missing. Identical values can stand only once.

The test system of the experiment is THP-1 viability, CellTiter-Glo luminescence, 72 h. Briefly: PubChem AID 2252.
For `C[C@H]1c2cccc(O)c2C(O)=C2C(=O)[C@]3(O)C(O)=C(C(N)=O)C(=O)[C@@H](N(C)C)[C@@H]3[C@@H](O)[C@@H]21`, the EC50 is 29 µM.

`O=C1C(SCCO)=C(SCCO)C(=O)c2ccccc21`: the EC50 was 3.62 µM.

For `O=C(Oc1c(Cl)cc(Cl)c2cccnc12)c1cccc([N+](=O)[O-])c1`, the concentration giving a half-maximal response (EC50) was 14.6 µM.

Turning to `CC(C)(c1ccccc1)c1ccc(OCCCNCCO)cc1`, the EC50 was 16.6 µM.

In the case of `CC1(C)Oc2ccc3ccc(=O)oc3c2/C(=C/NCCN/C=C2\C(=O)C(C)(C)Oc3ccc4ccc(=O)oc4c32)C1=O`, the EC50 was less than 0.1 µM.

For `COc1cccc(/C=N/NC(=O)CSCC(=O)Nc2ccccc2)c1O`, the EC50 was 5.26 µM.

`Cc1ccc(C[n+]2c(-c3ccc(C)cc3)cc(-c3ccc(C)cc3)cc2-c2ccc(C)cc2)cc1`: the EC50 is 0.22 µM.

For `CCOC(=O)c1c(N)sc(C(=O)Nc2ccc3c(c2)OCO3)c1C`, the concentration for a half-maximal effect (EC50) is 42.7 µM.

Consider `Cc1cc(C)c(OCCCCNCc2ccccc2)c(Cl)c1`, for which the EC50 is 12.2 µM.

As for `c1cncc(CSc2ccc(-c3cccs3)nn2)c1`, the half-maximal effective concentration (EC50) was 35.2 µM.

With `COc1ccc2nc(Nc3ccccc3)sc2c1`, the EC50 is less than 0.1 µM.

Consider `C#CCOCCOCCOCCNc1nc(N2CCN(C(=O)CCCCCCCCCCNC(=O)[C@H]([C@@H](C)CC)n3cc(CCCCCN)nn3)CC2)nc(N2CCN(C(=O)CCCCCCCCCCNC(=O)[C@@H]([C@H](C)O)n3cc(C)nn3)CC2)n1`, for which the 50% effective concentration (EC50) was 13 µM.

For the compound `COc1ccc(NC(=O)CN(C)S(=O)(=O)c2ccc(Cl)cc2)cc1Cl`, the concentration for a half-maximal effect (EC50) was less than 0.1 µM.

As for `CN1CCN(C2Cc3ccc(Cl)cc3Sc3ccc(F)cc32)CC1` (stereo unspecified), the EC50 was 11.6 µM.

Take `Oc1ccc(C[C@@H]2CNCCN2CCC23CC4CC(CC(C4)C2)C3)cc1`: the 50% effective concentration (EC50) was 9.86 µM.

Regarding `O=C(N/N=C/c1cc([N+](=O)[O-])ccc1O)c1cccc2cc[nH]c12`, the concentration giving a half-maximal response (EC50) is 1.91 µM.

Consider `O=C(N/N=C/c1c(O)ccc2ccccc12)c1ccc(CO)nc1`, for which the EC50 is 1.41 µM.

For `Cc1c(Cl)cccc1Nc1nc(NCCO)c2ccccc2n1`, the EC50 is 10.1 µM.

With `Fc1ccc(NC(=S)Nc2cc(-c3ccccc3)[nH]n2)cc1Cl`, the half-maximal effective concentration (EC50) is 41.9 µM.

Regarding `C#CCOCCOCCOCCNc1nc(N2CCN(C(=O)CCCCCCCCCCNC(=O)[C@@H](CCSC)n3cc(CCO)nn3)CC2)nc(N2CCN(C(=O)CCCCCCCCCCNC(=O)[C@H]([C@@H](C)CC)n3cc(CCCCN=C(N)N)nn3)CC2)n1`, the EC50 was 9.78 µM.

Consider `NC1=NC[C@@H](Cc2ccc(O)cc2)N1CCc1cc(C(F)(F)F)cc(C(F)(F)F)c1`, for which the EC50 was 32.3 µM.

With `Cc1nc2c(=O)n(C)c(=O)nc-2n(C)n1`, the concentration giving a half-maximal response (EC50) is 2.17 µM.

For `CN1CCN(C2Cc3cc(F)ccc3Sc3ccc(Cl)cc32)CC1` (stereo unspecified), the EC50 is 14.7 µM.

In the case of `CC[C@@H](C)[C@H](CN[C@H](CNC)C(C)C)NC[C@@H](C)c1ccc(CC(C)C)cc1`, the EC50 is 5.96 µM.

For the compound `CCC(O)(CC)C(=O)N/N=C/c1cc(Br)cc(Br)c1O`, the concentration giving a half-maximal response (EC50) was 15.4 µM.

`O=C(O)c1csc(-c2ccc(Cl)cc2)n1`: the EC50 is less than 0.1 µM.

With `Cc1c(CN(C)C)c2c(n1Cc1ccccc1)C(=O)c1ccc(Br)cc1-2`, the concentration giving a half-maximal response (EC50) was 21.1 µM.

As to `O=C(N/N=C/c1ccccc1O)c1ccncc1`, the EC50 was 15.2 µM.

With `O=C1CN(/N=C/c2ccc([N+](=O)[O-])o2)C(=O)N1`, the EC50 is 47.3 µM.

In the case of `CCCCCc1ccc(OCCC[n+]2ccccc2)c(CCCCC)c1`, the 50% effective concentration (EC50) was 1.59 µM.

For `CC(C)C1N=C(c2ccc3c(c2)OCO3)CC(c2ccccc2O)N1` (stereo unspecified), the half-maximal effective concentration (EC50) is 43.3 µM.

In the case of `C=CCn1c(NS(=O)(=O)c2ccccc2)c(S(=O)(=O)c2ccc(C)cc2)c2nc3ccccc3nc21`, the concentration giving a half-maximal response (EC50) is 40.9 µM.

As to `Nc1nonc1-n1nnc(C(=O)N/N=C/c2cc(Br)ccc2O)c1CSC1=NCCS1`, the EC50 is 1.29 µM.

Take `COc1ccc(Nc2cc(C)c3c(O)cccc3n2)cc1`: the 50% effective concentration (EC50) was 8.86 µM.

On to `O=[N+]([O-])c1ccc(/C=N/NC(=S)Nc2ccc(Cl)cc2Cl)s1`, for which the EC50 was 47.5 µM.

As for `Nc1c(Cl)ncnc1N/N=C/c1ccccn1`, the EC50 was 0.36 µM.

For the compound `O=C(CNCCC1=CCCCC1)Nc1ccc(N2CCCCCC2)cc1`, the EC50 was 15.6 µM.

As to `CCCCc1ccc(N/C(N)=N/c2nc(C)cc(C)n2)cc1`, the EC50 is 6.47 µM.

Turning to `Cc1ccc(N2C(N)=C(C#N)C(c3cccnc3)C3=C2CC(C)(C)CC3=O)cc1` (stereo unspecified), the EC50 is 32.9 µM.

Consider `Cc1cc2ncn(/N=C/c3ccc([N+](=O)[O-])o3)c2cc1C`, for which the 50% effective concentration (EC50) was 49.3 µM.

Regarding `CC(=O)NC(c1cccc([N+](=O)[O-])c1)c1ccc2cccnc2c1O` (stereo unspecified), the EC50 was 0.47 µM.

For the compound `O=C(Nc1csc(Cl)c1)c1ccccc1`, the EC50 was less than 0.1 µM.

For the compound `C#CCOCCOCCOCCNc1nc(N2CCN(C(=O)CCCCCCCCCCNC(=O)Cn3cc(CCCCCN)nn3)CC2)nc(N2CCN(C(=O)CCCCCCCCCCNC(=O)[C@H]([C@@H](C)CC)n3cc(CCCCN=C(N)N)nn3)CC2)n1`, the EC50 is 11 µM.

Regarding `Cc1cc(N2CCC(C)CC2)nc(NCc2ccccc2)n1`, the EC50 is 6.23 µM.

For the compound `CCN1CCN(C2=C(NS(=O)(=O)c3ccc(Br)cc3)C(=O)c3ccccc3C2=O)CC1`, the EC50 is 18.2 µM.

As for `c1cnc2c(c1)ccc1cccnc12`, the EC50 is 3.14 µM and 2.97 µM.

For the compound `Cc1nonc1C(=O)N/N=C/c1ccc([N+](=O)[O-])o1`, the half-maximal effective concentration (EC50) is 40.7 µM.

As for `COc1ccc(/C=N/Nc2cc(C)nc3c(C)cccc23)cc1`, the half-maximal effective concentration (EC50) is 5.61 µM.

On to `CCC(C)(C)c1ccc(OCCCC[n+]2ccccc2)c(C(C)(C)CC)c1`, for which the EC50 was 0.97 µM.

For the compound `COc1ccc(/C=C/c2cc(-c3ccc(C)cc3)o[n+]2C)cc1`, the EC50 is 1.27 µM.

`Cc1ccc(C(=O)NNC(=S)NC(=O)c2ccccc2)cc1`: the half-maximal effective concentration (EC50) is 8.09 µM.

As for `Cc1cc([N+](=O)[O-])cc(/C=N\NC(=O)C2COc3ccccc3O2)c1O` (stereo unspecified), the concentration for a half-maximal effect (EC50) is 14.3 µM.

Take `Oc1ccc(C[C@@H]2CNCCN2CCCCC2CCCCC2)cc1`: the EC50 was 8.53 µM.

In the case of `COc1nccnc1NS(=O)(=O)c1ccc(N=Cc2c(C)[nH]n(-c3ccc(C)c(C)c3)c2=O)cc1`, the 50% effective concentration (EC50) was 14.4 µM.

Consider `N#CC1=C2N=C(N)c3ccccc3N2C2=C(C(=O)CCC2)C1c1cccc(Cl)c1` (stereo unspecified), for which the EC50 was 27.1 µM.

`O=C(N/N=C/c1cc(Br)cc(Br)c1O)c1ccncc1`: the EC50 was 4.01 µM.

With `Oc1cccc(C=NCc2ccccc2)c1O`, the EC50 was 38.9 µM.

As for `CN1CCN(c2ccccc2NC(=O)c2sc3ccccc3c2Cl)CC1`, the concentration giving a half-maximal response (EC50) was 24.9 µM.

Take `CCc1c(C)nc2cc(-c3cc(OC)cc(OC)c3)nn2c1N1CCCC1`: the EC50 was 31 µM.

With `CC1CCC(C(C)C)C(OC(=O)Cn2c(COc3ccccc3)[n+](C)c3ccccc32)C1` (stereo unspecified), the EC50 is 2.37 µM.

Regarding `CCCCCCCCCCOC(=O)Cn1c(COc2ccccc2C)[n+](C)c2ccccc21`, the EC50 is 1.29 µM.

Turning to `O=C(/C=C/c1ccccc1Cl)c1ccccc(=O)c1O`, the concentration giving a half-maximal response (EC50) was 12.9 µM.

For `CC1=C([N+](=O)[O-])C(c2ccccc2)C2=C(N1)c1ccccc1C2=O` (stereo unspecified), the EC50 is 1.01 µM.

As to `OCCNc1nc(Nc2ccccc2)nc2ccccc12`, the concentration giving a half-maximal response (EC50) is 3.06 µM.

As to `c1ccc2c(c1)CSc1sccc1C2=C1CCNCC1`, the EC50 is 17.7 µM.

As to `CCCN(CCC)CCNC(=O)C1CCN(Cc2nc(-c3ccc(Cl)cc3)oc2C)CC1`, the half-maximal effective concentration (EC50) is 24.8 µM.

As to `[O-][n+]1c2c(c3c4non(O)c4ccc31)CCCC2`, the EC50 is 47.7 µM.

On to `CCN1CCN(Cc2ccc(NC(=O)c3ccc(C)c(NC(=O)c4c[nH]c5cc(C(F)(F)F)ccc5c4=O)c3)cc2C(F)(F)F)CC1`, for which the EC50 was 2.04 µM.

For `OCCCCNCc1ccc(OCc2ccccc2Cl)cc1`, the concentration giving a half-maximal response (EC50) was 34.6 µM.

`COc1ccc(C(=O)Nc2cc3c(cc2OC)CCCC3)cc1Br`: the EC50 is less than 0.1 µM.

Turning to `CN(C)CCCNc1cc(C(C)(C)C)nc2c(-c3ccccc3)cnn12`, the concentration for a half-maximal effect (EC50) was 6.48 µM.

As to `O=C(Nc1nnc(-c2cccs2)o1)c1cccc(F)c1`, the concentration for a half-maximal effect (EC50) was 16.9 µM.

Consider `CCCCNC(=S)Nc1ccc([N+](=O)[O-])cc1`, for which the half-maximal effective concentration (EC50) is 28.8 µM.

Take `Cc1ccc2nc(N(CCCN(C)C)C(=O)c3ccc4c(c3)CCCC4)sc2c1`: the EC50 was 9.42 µM.

With `CCCCCCCCCCOC(=O)Cn1c(COc2cccc(C)c2)[n+](C)c2ccccc21`, the EC50 is 2.43 µM.

On to `CCCCn1c(NS(=O)(=O)c2ccccc2)c(S(=O)(=O)c2ccc(C)cc2)c2nc3ccccc3nc21`, for which the EC50 is 12 µM.

`O=C(NC(=S)NNC(=O)c1ccccc1O)c1ccco1`: the half-maximal effective concentration (EC50) is 17.2 µM.

As to `O=C(CCN1CCN(c2ccccc2)CC1)c1ccc(Br)cc1`, the EC50 was 38.2 µM.

Take `CC1=C([N+](=O)[O-])C(c2cccc(Br)c2)C2=C(N1)c1ccccc1C2=O` (stereo unspecified): the EC50 was 3.1 µM.

For `CCOc1ccc(/C=N/NC(=O)c2[nH]ncc2Br)c(O)c1`, the concentration giving a half-maximal response (EC50) is 1.47 µM.

Consider `O=C(N/N=C/c1ccc([N+](=O)[O-])o1)C1CCCC1`, for which the EC50 is less than 0.1 µM.

As for `Cc1cccc(Nc2c3c(nc4ccccc24)CCC3)c1`, the EC50 was 6.27 µM.

Take `N/C(=N\OC(=O)N1CCOCC1)c1ccccc1`: the EC50 is 15.5 µM.

As to `CN(C)CCCNc1c2ccccc2nc2ccccc12`, the EC50 was 3.46 µM.

Consider `Clc1ccc(CN2CCc3c([nH]c4ccccc34)C2)cc1Cl`, for which the EC50 was 8.16 µM.

As for `CC1(C)CC(N2CCN(C(c3ccccc3)c3ccccc3)CC2)=CC(=[N+]2CCCCC2)C1`, the EC50 is 1.05 µM.

`OCCN1CCN(CCCN2c3ccccc3Sc3ccc(Cl)cc32)CC1`: the EC50 is 12.5 µM.

Turning to `Cc1ccc2c(c1)sc(-c1ccc(N(C)C)cc1)[n+]2C`, the EC50 was 4.02 µM.

`C/C(=N\NC(=O)c1ccc(CN2CCc3ccccc3C2)cc1)c1ccccc1O`: the EC50 was 7.89 µM.

As to `Oc1ccc(CN2CCN(Cc3ccccc3)CC2)c2cccnc12`, the EC50 was 9.96 µM.

As for `C[n+]1c2n(c3ccccc31)N=C(c1ccc(-c3ccccc3)cc1)CS2`, the concentration for a half-maximal effect (EC50) is 3.89 µM.

Turning to `COc1c(N2CCN(C(=S)NCc3ccccc3)C(C)C2)c(F)cc2c(=O)c(C(=O)O)cn(C3CC3)c12` (stereo unspecified), the concentration giving a half-maximal response (EC50) was 17.9 µM.

`CNCC[C@H](Oc1cccc2ccccc12)c1cccs1`: the 50% effective concentration (EC50) is 18.3 µM.

As for `CC1CCCC(NC(=O)COC(=O)CCSc2ccccc2)C1C` (stereo unspecified), the EC50 was less than 0.1 µM.

For `O=C(Nc1nc(-c2ccccn2)cs1)c1ccc(Cl)s1`, the EC50 is 0.84 µM.

Take `Cc1ccc(-n2c(-c3ccc(Br)cc3)c[n+]3c2CCc2ccc4cccnc4c2-3)cc1`: the EC50 was 0.76 µM.

For the origin of these results see PubChem BioAssay AID2252 (Southern Research Specialized Biocontainment Screening …, 2010).
